Source: patent publication US12612389B2, “Benzofuran-based N-acylhydrazone derivative and pharmaceutical composition comprising same” (KOREA RESEARCH INSTITUTE OF BIOSCIENCE AND BIOTECHNOLOGY, priority 2019, dated 2026)
Read-outs that look alike come from different tables or passages of the source.

Legend:
[1] = test system: HeLa cells; assay: Anti-proliferative activity test in HeLa cell line (MTT); assay type: cell-based; settings: Homo sapiens, 48 h, grown for 2 days, mean of 2
Method: HeLa cells (American Type Culture Collection: ATCC, USA), a human cervical cancer cell line, were seeded in a 96-well plate at 3×10^3 cells/well, and the cells were then treated with compounds of Examples or Comparative Example according to the present invention and grown for 2 days. Then, MTT (3-(4,5-dimethylthiazol-2-yl)-2,5-diphenyltetrazolium bromide) reagent was added at 10 μL/well. After 2 hours, absorbance was measured at “OD 450” and statistical values were obtained using Prism™6 program. The data shown in Table below are mean values of results obtained by repeating the analysis twice.

[2] = test system: HeLa CCL2 tumor; assay: Anticancer effect test in human cervical cancer cell (HeLa CCL2) transplantation model; assay type: in vivo, BALB/C female nude mouse; settings: 25 mg/kg intraperitoneally, p<0.001; for tumor growth inhibition: 0-28 days, Day 28, tumor size; for reduction in tumor weight compared with solvent control: excised tumor
Method: After thawing the human […] cancer cell line HeLa CCL2 that was stored frozen in liquid nitrogen, cell culture was performed. The cells were cultured for an appropriate period in a CO2 incubator (Forma, USA) at a temperature of 37° C. and a CO2 concentration of 5%.
On the last day of culture, all cancer cells were collected and counted, and the cell concentration was adjusted to 1×10^7 cells/mL using serum free media. The cell culture solution as adjusted above was injected subcutaneously into the axillary region between the shoulder blade and the chest wall in an amount of 0.3 mL (3×10^6 cells/mouse) per BALB/C female nude mouse (5 weeks old, Nara Biotech).
Immediately prior to administration, the compounds were dissolved in a mixture of DMAC (dimethylacetamide) 20%+Tween80 5%+20% HPbCD (2-hydroxypropyl-β-cyclodextrin) 75% at an appropriate concentration and used. The prepared substances were repeatedly administered intraperitoneally in an amount of 0.2 mL (10 mL/kg) per 20 g of a mouse according to the following administration schedule. • carrier, the compound of Example 4, the compound of Example 8, and the compound of Example 15 (25 mg/kg), 0-28 days 4.3. Confirmation of Change in Tumor Size
After cancer cell transplantation, the tumor size of each animal subject was measured a total of 11 times in 3 directions using a vernier caliper from when the mean tumor size reached 57.0 mm^3 until Day 28, and calculated by the formula of length×width×height/2.
In order to test the degree of toxicity upon repeated intraperitoneal administration of the Example compound to HeLa CCL2 cancer cell transplantation nude mice, general symptoms and body weight changes of the animal subjects were observed during the administration period.
On Day 28 after drug administration, blood was collected from the mouse ophthalmic veins in 2 hours post the last administration, and the mice were killed using CO2 gas. Images of the mice were taken, and the tumor was separated and weighed on an electronic scale. After taking the images, each tumor was divided in half and fixed in liquid nitrogen and formalin, respectively. On […] after drug administration, the HeLa CCL2 tumor was excised and weighed.

[3] = Stability test in plasma; assay type: in vitro ADME; parameters: Residue % (180 minutes elapsed), Mean: dose or concentration left out as unconfirmed; settings: 37° C.
Method: In order to test the stability (in vivo) of the Example compounds according to the present invention, the compounds of Examples 2, 3, 4, 8 and 15 were administered intravenously, and plasma concentrations over time were observed. In addition, procaine was used as a positive control. Plasma stability was measured three times by administering the test compound at a concentration […] to human, rat, or mouse plasma (90 μL) at 37° C. Results thereof are shown in Table below and FIGS. 3A to 3E.

[4] = Stability test in plasma; assay type: in vitro ADME; settings: Rat plasma, 37° C.; for Residue % (180 minutes elapsed), Mean: 5 mM
Method: In order to test the stability (in vivo) of the Example compounds according to the present invention, the compounds of Examples 2, 3, 4, 8 and 15 were administered intravenously, and plasma concentrations over time were observed. In addition, procaine was used as a positive control. Plasma stability was measured three times by administering the test compound at a concentration of 5 mM to human, rat, or mouse plasma (90 μL) at 37° C. Results thereof are shown in Table below and FIGS. 3A to 3E.

[5] = Metabolic stability test in liver microsomes; assay type: in vitro ADME; settings: 0.5 mg protein/mL, 37° C.
Method: (§1) The test compounds at a concentration of […] were administered in the presence or absence of NADPH (1 mM) to liver […] (0.5 mg protein/mL) of humans, rats and mice, and metabolic stability was tested at 37° C. for 30 minutes. In addition, buspirone was used as a positive control. Results thereof are shown in Table below and FIGS. 4A to 4E.

[6] = Stability in buffer (line of the metabolic stability test); assay type: in vitro ADME
Method: as §1

[7] = Solubility test in administration solvent; assay type: physicochemical; settings: 2.0 mg/mL, Solvent A 20%
Method: The test substances were accurately weighed and placed in a glass vial. Then, solvent A was added in an amount corresponding to 20% of the desired final solution volume, and the mixture was completely dissolved by treatment with a vortexer and sonication. Next, solvent B in an amount corresponding to 10% or 20% of the final solution volume was added and mixed well. […] Finally, the mixture was subjected to sonication for 30 seconds. The mixed solution was prepared and used immediately before administration in the experiment. • Solvent A: Dimethylacetamide produced by SigmaAldrich • Solvent B: Cremophor EL produced by SigmaAldrich • Solvent C: 20% HPbCD ((2-Hydroxypropyl)-β-cyclodextrin produced by SigmaAldrich) in deionized water

[8] = Pharmacokinetic (PK) test; assay type: in vivo, male ICR mice; settings: for F, Mean: Oral 20 mg/kg vs intravenous 5 mg/kg, calculated using AUClast; for CL, Mean / Vd / AUC(0-inf) / AUC(0-t) / clearance / MRT inf / half-life / Cmax / Tmax: mice, n=3; for Vd / AUC(0-inf) / AUC(0-t) / clearance / MRT inf / half-life / Cmax / Tmax: male, ICR, mouse, plasma; for Vd: iv; for AUC(0-inf): read-out: AUCinf, Mean; for AUC(0-t): read-out: AUClast, Mean; for clearance: read-out: CL, Mean (converted); for MRT inf: read-out: MRTinf, Mean; for half-life: read-out: t1/2, Mean (converted)
Method: Pharmacokinetic (PK) parameters of the Example compounds according to the present invention were determined using male ICR mice as follows (n=3).
Pharmacokinetic (PK) parameters were measured by non-compartmental analysis of plasma concentration-time curves using Kinetica™ 4.4.1 (Thermo Fisher Scientific, USA). Results thereof are shown in Table below and FIGS. 5A to 5C. In Table below, “F” parameter was calculated using AUClast, “N/A” indicates the phrase not applicable, and “NC” indicates the phrase not calculated.

[9] = 5 mg/kg, Intravenous administration, 5 mg/kg, read-out: Vss, Mean
[10] = 5 mg/kg, Intravenous administration, 5 mg/kg, read-out: Vz, Mean
[11] = Intravenous administration, 5 mg/kg

CCOCCn1c(Cl)c(/C=N/NC(=O)c2cc3cc(C)ccc3o2)c2ccccc21 [Example 4, (E)-N′-[(2-chloro-1-(2-ethoxyethyl)-1H-indol-3-yl]methylene}-5-methylbenzofuran-2-carbohydrazide]
IC50 [1]: 180 nM | tumor growth inhibition [2]: 56.71% | reduction in tumor weight compared with solvent control [2]: 57.1% | Residue % (180 minutes elapsed), Mean ([3]; Human plasma): 49.41% | half-life at 5 mM ([3]; Human plasma): > 180 min | Residue % (180 minutes elapsed), Mean ([3]; Mouse plasma): 60.44% | half-life at 5 mM ([3]; Mouse plasma): > 180 min | half-life at 5 mM [4]: > 180 min | Residue % (180 minutes elapsed), Mean [4]: 67.11% | Residue (%) after culturing for 30 min ([5]; Human, +NADPH): 15.76 ± 0.89% | Residue (%) after culturing for 30 min ([5]; Human, −NADPH): 77.60 ± 1.39% | Residue (%) after culturing for 30 min ([5]; Mouse, +NADPH): 5.48 ± 0.04% | Residue (%) after culturing for 30 min ([5]; Mouse, −NADPH): 47.95 ± 2.93% | Residue (%) after culturing for 30 min ([5]; Rat, +NADPH): 3.23 ± 0.55% | Residue (%) after culturing for 30 min ([5]; Rat, −NADPH): 69.63 ± 1.94% | Residue (%) after culturing for 30 min [6]: 100.93 ± 11.79% | Solubility evaluation result ([7]; Solvent B 10%, Solvent C 70% (dimethylacetamide/Cremophor EL/20% HPbCD)): Soluble | F, Mean [8]: 4.8% | CL, Mean ([8]; Oral administration, 20 mg/kg): 1152 mL/min/kg | Vd [8, 9]: 0.98 L/kg | Vd [8, 10]: 1.88 L/kg | AUC(0-inf) [8, 11]: 1500 ng·h/mL | AUC(0-t) [8, 11]: 1480 ng·h/mL | clearance [8, 11]: 55.7 mL/min/kg | MRT inf [8, 11]: 17.4 min | half-life [8, 11]: 23.4 min | Cmax ([8]; Oral administration, 20 mg/kg): 431 ng/mL | Tmax ([8]; Oral administration, 20 mg/kg): 15 min | AUC(0-inf) ([8]; Oral administration, 20 mg/kg): 295 ng·h/mL | AUC(0-t) ([8]; Oral administration, 20 mg/kg): 285 ng·h/mL | MRT inf ([8]; Oral administration, 20 mg/kg): 42 min | half-life ([8]; Oral administration, 20 mg/kg): 24 min

CCOCCn1c(Cl)c(/C=N/NC(=O)c2cc3cc(C)ccc3o2)c2cc(OC)ccc21 [Example 8, (E)-N′-[(2-chloro-1-(2-ethoxyethyl)-5-methoxy-1H-indol-3-yl]methylene}-5-methylbenzofuran-2-carbohydrazide]
IC50 [1]: 82 nM | tumor growth inhibition [2]: 38.35% | reduction in tumor weight compared with solvent control [2]: 40.5% | Residue % (180 minutes elapsed), Mean ([3]; Human plasma): 26.05% | half-life at 5 mM ([3]; Human plasma): > 180 min | Residue % (180 minutes elapsed), Mean ([3]; Mouse plasma): 74.16% | half-life at 5 mM ([3]; Mouse plasma): > 180 min | half-life at 5 mM [4]: > 180 min | Residue % (180 minutes elapsed), Mean [4]: 49.25% | Residue (%) after culturing for 30 min ([5]; Human, +NADPH): 24.11 ± 0.46% | Residue (%) after culturing for 30 min ([5]; Human, −NADPH): 99.18 ± 1.92% | Residue (%) after culturing for 30 min ([5]; Mouse, +NADPH): 11.41 ± 2.47% | Residue (%) after culturing for 30 min ([5]; Mouse, −NADPH): 89.93 ± 6.72% | Residue (%) after culturing for 30 min ([5]; Rat, +NADPH): 4.55 ± 0.94% | Residue (%) after culturing for 30 min ([5]; Rat, −NADPH): 85.58 ± 3.34% | Residue (%) after culturing for 30 min [6]: 98.98 ± 2.07% | Solubility evaluation result ([7]; Solvent B 20%, Solvent C 60% (dimethylacetamide/Cremophor EL/20% HPbCD)): Soluble | F, Mean [8]: 1.0% | CL, Mean ([8]; Oral administration, 20 mg/kg): 3265.3 mL/min/kg | Vd [8, 9]: 0.5 L/kg | Vd [8, 10]: 0.85 L/kg | AUC(0-inf) [8, 11]: 2390 ng·h/mL | AUC(0-t) [8, 11]: 2380 ng·h/mL | clearance [8, 11]: 35 mL/min/kg | MRT inf [8, 11]: 14.4 min | half-life [8, 11]: 16.8 min | Cmax ([8]; Oral administration, 20 mg/kg): 93.9 ng/mL | Tmax ([8]; Oral administration, 20 mg/kg): 34.8 min | AUC(0-inf) ([8]; Oral administration, 20 mg/kg): 103 ng·h/mL | AUC(0-t) ([8]; Oral administration, 20 mg/kg): 96.3 ng·h/mL | MRT inf ([8]; Oral administration, 20 mg/kg): 54 min | half-life ([8]; Oral administration, 20 mg/kg): 24 min
